Experimental data published in patent US20180133211A1, “METHODS AND MATERIALS FOR PROMOTING BONE FORMATION” (Mayo Foundation for Medical Education and Research, priority 2015, published 2018).

Experiments:
MC3T3 cells = assay: Osteogenic differentiation of MC3T3 cells under EZH2 inhibition; type: cell-based, mouse; settings: 1 μM UNC1999
Procedure: MC3T3 cells were seeded in 6-well plates in maintenance medium (10,000 cells/cm^2). The following day, maintenance medium was replaced with osteogenic medium (αMEM supplemented with 50 μg/mL ascorbic acid (Sigma) and 4 mM beta glycerol phosphate (Sigma)) containing vehicle or EZH2 inhibitor. Three days later, vehicle or EZH2 inhibitors were added again with osteogenic medium. On day six, EZH2 inhibitor and vehicle were removed, and fresh osteogenic medium added.
Media were changed every three days. RNA was isolated at indicated times. On day 6, cells were fixed in 10% neutral buffered formalin and stained with 5-bromo-4-chloro-3-indolyl-phosphate/nitro blue tetrazolium to monitor the enzymatic activity of alkaline phosphatase (Promega). On day 14 (AMCs) and days 21-25 (MC3T3), cells were fixed in 10% neutral buffered formalin and stained with 2% Alizarin Red to visualize calcium deposition. Absorption of alizarin red stain was normalized to total DNA as measured by Hoechst staining of the nuclei.

RAW 264.7 cells = assay: RT-qPCR mRNA expression; type: cell-based, mouse; settings: RAW 264.7 induced with RANKL and MCSF, co-treatment with SFN
Procedure: Total RNA was extracted using the SV Total RNA Isolation kit (Promega) following the supplier's instructions. cDNA was synthesized from about 0.5 μg RNA using the First Strand cDNA Synthesis kit (Roche) as described by the supplier. The resulting cDNAs were subjected to quantitative PCR amplification with a real-time cycler using the QUANTITECT™ SYBR® Green PCR Kit (Qiagen, Hilden, Germany) for the genes Alpl, Fas, Lox, Tet1, Tet2, and TAQMAN® Gene expression Master Mix (Applied Biosystems, Foster City, Calif., USA) for measuring Runx2, Bglap2, Colla1, Tnfsf11, and 18S rRNA expression (for primers, see Table 1). SYBR-Green RT-qPCR was started with an initial denaturation step at 95° C. for 10 minutes and then continued with 45 cycles consisting of 30 seconds denaturation at 95° C., 30 seconds annealing at primer-specific temperatures, and extension at 72° C. For measurement of the TAQMAN® assays, an initial denaturation at 95° C. for 10 minutes was applied, followed by 45 cycles alternating 60 seconds at 60° C. and 15 seconds at 95° C. All RT-qPCR assays were performed in triplicate, and expression was evaluated using the comparative quantification method (Pfaffl, Nucleic Acids Res., 29:e45 (2001)).

MC3T3-E1 cells = assay: ECM mineralization by Alizarin Red stain; type: cell-based, mouse; settings: for matrix mineralization (Alizarin Red): MC3T3-E1, as early as 14 days of treatment
Procedure: Differentiation of MC3T3-E1 cells was induced with 50 μg/mL ascorbic acid (Sigma-Aldrich) and 5 mM β-glycerophosphate (Sigma-Aldrich) in medium containing 5% FBS. RAW 264.7 cells were cultured in Dulbecco's modified Eagle's medium (DMEM, Invitrogen, Carlsbad, Calif., USA) supplemented with 10% fetal bovine serum (Hyclone) and 2 mM glutamine (Gibco, Carlsbad, Calif., USA). Cells were seeded in culture dishes at a density of 20,000 cells/cm^2 and cultured overnight unless stated otherwise. Before cells were treated with compounds, the culture medium was changed.
Calvariae from 2 to 3-day-old and from 7-week old C57BL/6 mice were dissected aseptically. The calvarial bone explants were cultured in 48-well plates in α-MEM (Biochrom) containing 10% FCS (Biochrom), 50 μg/mL ascorbic acid (Sigma-Aldrich), 5 mM β-glycerophosphate (Sigma-Aldrich), and 10 μg/mL gentamicin (Sigma-Aldrich). The day after dissection, medium was changed, and a part of the explants was treated with 3 μM L- or DL-SFN for 12 days. Thereafter, one part of the calvariae were fixed for 1 hour in 4% para-formaldehyde (PFA), and mineralization was measured by Alizarin Red S stain (Sigma-Aldrich). For this purpose, Alizarin Red S dye was extracted using 10% cetylpyridinium chloride (CPC) in 10 mM sodiumphosphate (pH=7.0) for 45 minutes at room temperature. Alizarin Red S absorbance was measured at 562 nm in a multi-plate reader (Tecan, Maennedorf, Switzerland) and normalized to total protein amount measured by bicinchoninic acid assay (Thermo Fisher Scientific, Waltham, Mass., USA). From the other part of the calvariae, total RNA was extracted.

[1] = tested on: primary mouse osteoclasts; assay: Osteoclastic resorption on dentin slices; type: cell-based; settings: 3 μM L- or DL-SFN, 14 days
Procedure: Primary mouse tissues or cells were obtained according to procedures that conform to the regulatory guidelines of the Institutional Animal Care and Use Committee of the Medical University of Vienna. Primary mouse osteoclasts were harvested from 8-week old C57BL/6 mice, which were sacrificed, and bone marrow cells were isolated from tibias and femurs under aseptic conditions and cultured in α-MEM (Biochrom) containing 10% FCS (Biochrom), […] (Sigma-Aldrich) and macrophage colony stimulating factor (MCSF1, 30 ng/mL). After 24 hours, non-adherent cells were seeded onto sterile, 300 μm thick dentin slices (elephant ivory) at 700,000 cells/cm^2 in αMEM supplemented with 10% FBS, 2 mM 1-glutamine, 30 μg/mL gentamycin, 20 ng/mL M-CSF, and 2 ng/mL RANKL (R&D Systems, Minneapolis, Minn., USA). Culture medium was changed twice per week, and cells were cultured for 14 days.
After culturing the primary mouse osteoclasts for 14 days on dentin slices in the presence or absence of 3 μM L- or DL-SFN, substrates were put into water, sonicated for 10 minutes to remove living cells and air-dried. Photographs were obtained by reflected light microscopy (objective 20×) of the entire substrate surface, and resorption trails and pits were analyzed and quantified with standard image analysis software (ImageJ, rsbweb.nih.gov/ij/). […]

[2] = tested on: sham operated or ovariectomized (OVX) C57B16/J female mice; assay: In vivo analysis of SFN effects on bone, μCT; set-up: species or system mouse; settings: OVX mice; mitigation of the OVX-dependent decrease of trabecular number
Procedure: Analysis of SFN on mice was performed using a protocol similar to that described elsewhere (Kong et al., Arthritis Rheum., 62:159-170 (2010)). In the experimental setting herein, eight week old sham operated or ovariectomized (OVX) C57B16/J female mice were purchased from Charles River laboratories. Mice were injected with 7.5 mM DL-SFN (200 μL of SFN at a concentration of 63.8 mg/mL/kg dissolved in ethanol and further diluted in PBS) intraperitoneally every other day for five weeks. Control mice received vehicle alone.
Images from tibias fixed in 4% formaldehyde were acquired in a SkyScan 1174 with a resolution of 6 μm (X-ray voltage 50 kV). Image reconstruction was performed by applying a modified Feldkamp algorithm using the Skyscan Nrecon software. 3D and 2D morphometric parameters were calculated for the trabecular bone (350 consecutive slides, 6 μm thick) starting from 300 μm from the growth plate. Threshold values were applied for segmenting trabecular bone corresponding to bone mineral density values of 0.6/cm^3 calcium hydroxyapatite. 3D parameters were based on analysis of a Marching Cubes type model with a rendered surface. Calculation all of 2D areas and perimeters was based on the Pratt algorithm (Pratt et al., IEEE Trans. Biomed. Eng., 38, 306-309 (1991). Bone structural variables and nomenclature were used according to Bouxsein et al. (J. Bone Miner. Res., 25:1468-1486 (2010)).

Compound | osteogenic differentiation of MC3T3 cells (MC3T3 cells) | expression of classical osteoclastic markers (Acp5, Clcr, Ctsk) (RAW 264.7 cells) | potency in stimulating matrix mineralization relative to DMSO (MC3T3-E1 cells; MC3T3-E1) | matrix mineralization (Alizarin Red) (MC3T3-E1 cells) | area resorbed by primary mouse osteoclast cultures on ivory discs [1] | bone loss due to estrogen-deficiency [2]
CCCc1cc(C)[nH]c(=O)c1CNC(=O)c1cc(-c2ccc(N3CCN(C(C)C)CC3)nc2)cc2c1cnn2C(C)C [UNC1999, N-[(6-methyl-2-oxo-4-propyl-1,2-dihydropyridin-3-yl)methyl]-1-(propan-2-yl)-6-{6-[4-(propan-2-yl)piperazin-1-yl]pyridin-3-yl}-1H-indazole-4-carboxamide] | promotes | – | – | – | – | –
1-isothiocyanato-5-methanesulfinylpentane [SFN] | – | no appreciable changes | at least four orders of magnitude more potent than DMSO | increased matrix mineralization | significantly reduced | reduced bone loss
C[S+](C)[O-] [DMSO, methanesulfinyl methane] | – | – | – | increased matrix mineralization | – | –
